In experiment [1] the test system is metastatic ovarian cancer. In words: Prior standard chemotherapy of the ovarian cancer patient before the ANG1005 trial. Type of experiment: in vivo, human. As to conditions: prior therapy 2007-2008. As for the experimental part: The patient was originally diagnosed in November 2006 with ovarian cancer. […] From February 2008 to March 2008, the patient received a combination of Gemzar® (gemcitabine) and […]® (topotecan). The patient was again given a combination of Taxotere® (docetaxel) and carboplatin from March 2008 until July 2008. In November 2008, the patient was administered Doxil® (doxorubicin).

The target of the next experiment is T1, LRP receptor (Rattus norvegicus, UniProt G3V928).
T1 construct: from tissue; host or cells: brain of male Sprague Dawley rats (in situ perfusion)
Briefly: In situ rat brain perfusion, uptake inhibition by LRP ligands or Angiopep peptides. Type of experiment: in vivo. As to conditions: for brain uptake of an Angiopep conjugate: FIG. 6B. From the text:
The methods of the invention may be especially useful in treating cancers having cells that express low density lipoprotein-related protein (LRP) receptor. The LRP receptor is expressed on the surface of cells, and is capable of binding to various substrates including aprotinin, β-amyloid, tissue plasminogen activator (tPA), melano-transferrin, and receptor associated peptide (RAP). The peptides described herein were designed based on the consensus kunitz-domain sequences that act as LRP receptor ligands (see, e.g., PCT Publication No. WO 2004/060403). Uptake of the conjugates including Angiopep-1 or Angiopep-2 is inhibited by LRP ligands, thus indicating involvement of LRP in this process. […] Angiopep-2 (10 or 100 μM) is similarly able to reduce uptake of the conjugates into cells (FIGS. 6A and 6B).
The results described in FIGS. 4A and 4B were obtained using an in situ rat brain perfusion. Male Sprague Dawley rats were anesthetized with […] i.p., of sodium pentobarbital (Nembutal, Abbott Laboratories, North Chicago, Ill., USA). The neck region was shaved and the common carotid artery was exposed. The external carotid artery was ligated, but the pterygopalatine artery was not occluded. A PE-60 catheter filled with heparinized 0.9% saline (100 IU/mL) was inserted into the common carotid artery upon ligation. A heating pad linked to YSI feedback controller device (Yellow Springs Instruments, Yellow Springs, Ohio, USA) was used to maintain the rat body temperature at 37° C. The PE-60 catheter was attached to a glass syringe filled with the tracer; with or without inhibitors, in a bicarbonate-buffered physiological saline (Smith Q R., Pharm Biotechnol 8:285-307, 1996) mounted on a Harvard infusion pump (Harvard Biosciences, South Natick, Mass., USA) maintained at 37° C. Dual-labeled experiments were performed for studying the brain uptake. [^14C]Sucrose was used as a vascular volume marker. Perfusion was started upon severing the heart to stop blood flow to the brain. […] The samples were weighed and counted using the gamma counter (Cobra 600) to determine the ^125I labeled drug. […]

T1 sequence (G3V928 20-4545): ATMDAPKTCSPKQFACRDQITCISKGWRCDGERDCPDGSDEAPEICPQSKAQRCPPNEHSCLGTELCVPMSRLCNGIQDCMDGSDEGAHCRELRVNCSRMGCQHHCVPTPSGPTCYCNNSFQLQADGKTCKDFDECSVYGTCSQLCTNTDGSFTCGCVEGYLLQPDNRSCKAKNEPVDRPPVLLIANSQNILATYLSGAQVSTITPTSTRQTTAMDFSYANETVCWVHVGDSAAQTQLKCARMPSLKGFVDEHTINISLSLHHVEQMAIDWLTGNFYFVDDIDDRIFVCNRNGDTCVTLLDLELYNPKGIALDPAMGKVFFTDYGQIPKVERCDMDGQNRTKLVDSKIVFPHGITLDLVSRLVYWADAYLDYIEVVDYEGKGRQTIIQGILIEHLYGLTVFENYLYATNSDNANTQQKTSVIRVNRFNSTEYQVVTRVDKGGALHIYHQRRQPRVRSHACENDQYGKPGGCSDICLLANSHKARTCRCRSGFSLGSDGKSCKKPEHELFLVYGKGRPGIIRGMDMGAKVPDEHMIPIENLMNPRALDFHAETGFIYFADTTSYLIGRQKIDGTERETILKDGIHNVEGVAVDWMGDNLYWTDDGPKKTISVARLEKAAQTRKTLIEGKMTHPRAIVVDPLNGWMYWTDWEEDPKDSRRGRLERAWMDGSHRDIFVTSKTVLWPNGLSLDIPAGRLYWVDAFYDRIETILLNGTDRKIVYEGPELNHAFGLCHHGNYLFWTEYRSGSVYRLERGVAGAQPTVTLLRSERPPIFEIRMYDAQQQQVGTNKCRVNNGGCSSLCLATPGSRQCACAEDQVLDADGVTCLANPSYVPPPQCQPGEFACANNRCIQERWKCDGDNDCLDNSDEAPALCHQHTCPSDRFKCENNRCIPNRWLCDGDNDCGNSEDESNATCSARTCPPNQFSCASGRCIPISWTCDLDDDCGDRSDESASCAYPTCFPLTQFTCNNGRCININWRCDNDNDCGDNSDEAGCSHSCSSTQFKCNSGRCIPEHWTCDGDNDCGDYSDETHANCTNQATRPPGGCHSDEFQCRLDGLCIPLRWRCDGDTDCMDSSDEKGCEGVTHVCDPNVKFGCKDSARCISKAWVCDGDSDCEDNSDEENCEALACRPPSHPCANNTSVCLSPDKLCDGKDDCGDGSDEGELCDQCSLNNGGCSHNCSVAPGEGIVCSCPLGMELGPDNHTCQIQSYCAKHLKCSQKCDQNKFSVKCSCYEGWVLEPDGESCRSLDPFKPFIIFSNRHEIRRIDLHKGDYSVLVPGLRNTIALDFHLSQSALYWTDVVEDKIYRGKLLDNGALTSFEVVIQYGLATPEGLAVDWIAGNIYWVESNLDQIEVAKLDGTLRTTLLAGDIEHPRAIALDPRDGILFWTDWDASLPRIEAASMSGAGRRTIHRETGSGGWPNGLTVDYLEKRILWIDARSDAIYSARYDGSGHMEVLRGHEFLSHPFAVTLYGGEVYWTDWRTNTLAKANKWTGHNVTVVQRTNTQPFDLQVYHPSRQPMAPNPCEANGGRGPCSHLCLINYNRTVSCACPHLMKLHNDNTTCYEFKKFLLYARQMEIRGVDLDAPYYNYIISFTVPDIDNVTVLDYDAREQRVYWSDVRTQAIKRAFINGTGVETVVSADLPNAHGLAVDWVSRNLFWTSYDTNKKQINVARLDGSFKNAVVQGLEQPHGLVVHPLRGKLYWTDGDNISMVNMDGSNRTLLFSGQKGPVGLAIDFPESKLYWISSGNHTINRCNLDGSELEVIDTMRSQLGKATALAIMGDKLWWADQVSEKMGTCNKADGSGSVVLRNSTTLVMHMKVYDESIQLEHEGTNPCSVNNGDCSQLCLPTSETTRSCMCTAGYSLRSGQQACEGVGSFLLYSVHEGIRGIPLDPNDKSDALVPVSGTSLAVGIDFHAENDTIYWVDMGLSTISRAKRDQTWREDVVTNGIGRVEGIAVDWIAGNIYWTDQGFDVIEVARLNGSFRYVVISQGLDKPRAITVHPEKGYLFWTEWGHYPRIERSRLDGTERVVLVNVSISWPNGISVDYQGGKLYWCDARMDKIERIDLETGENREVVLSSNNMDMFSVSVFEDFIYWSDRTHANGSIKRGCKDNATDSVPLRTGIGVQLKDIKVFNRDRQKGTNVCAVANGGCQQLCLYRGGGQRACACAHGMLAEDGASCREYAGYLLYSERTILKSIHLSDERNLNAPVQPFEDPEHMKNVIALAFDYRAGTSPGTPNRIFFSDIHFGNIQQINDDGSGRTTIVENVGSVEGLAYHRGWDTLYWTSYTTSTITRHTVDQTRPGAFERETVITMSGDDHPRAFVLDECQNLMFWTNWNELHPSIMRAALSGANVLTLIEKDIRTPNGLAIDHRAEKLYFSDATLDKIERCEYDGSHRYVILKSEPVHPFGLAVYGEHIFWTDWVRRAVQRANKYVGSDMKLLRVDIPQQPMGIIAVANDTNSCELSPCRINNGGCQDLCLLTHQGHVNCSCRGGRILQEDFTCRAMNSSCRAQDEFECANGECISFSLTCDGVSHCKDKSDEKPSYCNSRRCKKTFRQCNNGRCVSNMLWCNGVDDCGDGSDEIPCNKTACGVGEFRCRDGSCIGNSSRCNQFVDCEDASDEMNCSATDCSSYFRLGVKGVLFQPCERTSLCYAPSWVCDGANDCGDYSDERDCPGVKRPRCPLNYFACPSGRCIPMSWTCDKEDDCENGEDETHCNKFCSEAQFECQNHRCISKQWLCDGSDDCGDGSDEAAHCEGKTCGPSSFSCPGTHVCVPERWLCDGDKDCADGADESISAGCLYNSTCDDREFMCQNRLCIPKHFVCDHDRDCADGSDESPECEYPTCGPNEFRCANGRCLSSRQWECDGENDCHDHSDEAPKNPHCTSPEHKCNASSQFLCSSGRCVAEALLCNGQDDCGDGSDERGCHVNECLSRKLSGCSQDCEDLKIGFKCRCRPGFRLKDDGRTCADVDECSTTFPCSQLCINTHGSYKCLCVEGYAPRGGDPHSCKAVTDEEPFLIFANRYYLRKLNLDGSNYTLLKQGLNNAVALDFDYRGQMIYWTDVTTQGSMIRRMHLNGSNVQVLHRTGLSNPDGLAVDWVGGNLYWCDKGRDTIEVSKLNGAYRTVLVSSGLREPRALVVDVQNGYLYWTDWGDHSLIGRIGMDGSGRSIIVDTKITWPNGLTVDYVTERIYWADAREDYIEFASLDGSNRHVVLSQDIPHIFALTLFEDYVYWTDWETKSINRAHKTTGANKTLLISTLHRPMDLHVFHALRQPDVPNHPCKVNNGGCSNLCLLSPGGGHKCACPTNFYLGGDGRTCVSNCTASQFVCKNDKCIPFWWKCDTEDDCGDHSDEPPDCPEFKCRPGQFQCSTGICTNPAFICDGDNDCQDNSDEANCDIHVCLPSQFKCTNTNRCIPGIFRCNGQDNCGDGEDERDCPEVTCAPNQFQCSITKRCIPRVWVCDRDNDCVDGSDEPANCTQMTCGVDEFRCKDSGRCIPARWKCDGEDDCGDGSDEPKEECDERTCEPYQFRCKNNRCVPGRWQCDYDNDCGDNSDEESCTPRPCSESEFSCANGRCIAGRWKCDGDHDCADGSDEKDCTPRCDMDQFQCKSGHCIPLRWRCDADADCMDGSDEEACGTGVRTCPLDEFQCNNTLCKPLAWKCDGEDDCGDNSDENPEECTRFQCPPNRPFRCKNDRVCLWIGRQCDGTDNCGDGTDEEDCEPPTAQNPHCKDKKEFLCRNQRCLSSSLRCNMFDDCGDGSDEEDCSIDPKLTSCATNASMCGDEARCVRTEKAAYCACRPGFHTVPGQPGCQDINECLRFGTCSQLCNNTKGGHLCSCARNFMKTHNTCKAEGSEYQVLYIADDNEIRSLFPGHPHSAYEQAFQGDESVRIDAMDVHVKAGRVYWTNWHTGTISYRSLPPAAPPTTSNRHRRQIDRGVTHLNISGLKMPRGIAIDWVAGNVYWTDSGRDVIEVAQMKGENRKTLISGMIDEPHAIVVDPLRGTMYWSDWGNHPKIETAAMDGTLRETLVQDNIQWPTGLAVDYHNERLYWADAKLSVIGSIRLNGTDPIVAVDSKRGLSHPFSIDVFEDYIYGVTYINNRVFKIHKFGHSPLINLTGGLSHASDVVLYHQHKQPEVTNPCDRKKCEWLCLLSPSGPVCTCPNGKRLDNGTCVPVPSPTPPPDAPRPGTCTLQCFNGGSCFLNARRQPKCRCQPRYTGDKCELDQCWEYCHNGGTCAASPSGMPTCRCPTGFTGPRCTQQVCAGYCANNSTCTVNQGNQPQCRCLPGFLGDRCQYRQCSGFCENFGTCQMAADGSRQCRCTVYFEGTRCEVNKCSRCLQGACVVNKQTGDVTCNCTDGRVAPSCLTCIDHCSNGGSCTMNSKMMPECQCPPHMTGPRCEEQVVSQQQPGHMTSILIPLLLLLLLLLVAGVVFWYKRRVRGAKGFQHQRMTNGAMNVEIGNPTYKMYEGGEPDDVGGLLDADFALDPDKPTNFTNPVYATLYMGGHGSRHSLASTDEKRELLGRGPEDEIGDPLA

In the case of `COc1cccc2c1C(=O)c1c(O)c3c(c(O)c1C2=O)C[C@@](O)(C(=O)CO)C[C@@H]3O[C@H]1C[C@H](N)[C@H](O)[C@H](C)O1` [doxorubicin], the “course of patient's cancer after receiving the agent” value (“course of patient's cancer” for short) in experiment [1] is “continued to progress”.
On to `CC[C@@]1(O)C(=O)OCc2c1cc1n(c2=O)Cc2cc3c(CN(C)C)c(O)ccc3nc2-1` [topotecan], for which the “course of patient's cancer” value in experiment [1] is “continued to progress”.
“RAP: LRP ligand, receptor associated protein (RAP)”: the “brain uptake of an Angiopep conjugate” value in the experiment with LRP receptor (RAP 200 nM co-perfused) is “reducing brain uptake”.
In the case of `N.N.O=C([O-])C1(C(=O)[O-])CCC1.[Pt+2]` [carboplatin], in experiment [1], the “course of patient's cancer” value is listed as “continued to progress”.
For the compound “Angiopep-2: peptide vector, sequence TFFYGGSRGKRNNFKTEEY”, the “uptake of the conjugates into cells” value with LRP receptor (Angiopep-2 10 or 100 μM, FIG. 6A) is “reduce uptake”.
As to `CC(=O)O[C@@]12CO[C@@H]1C[C@H](O)[C@@]1(C)C(=O)[C@H](O)C3=C(C)[C@@H](OC(=O)[C@H](O)[C@@H](NC(=O)OC(C)(C)C)c4ccccc4)C[C@@](O)([C@@H](OC(=O)c4ccccc4)[C@H]21)C3(C)C` [docetaxel], in experiment [1], the “course of patient's cancer” value is on record as “continued to progress”.
As for aprotinin, the “brain uptake of an Angiopep conjugate” value at LRP receptor (aprotinin 10 μM co-perfused) is on record as “reducing brain uptake”.
For the compound `Nc1ccn([C@@H]2O[C@H](CO)[C@@H](O)C2(F)F)c(=O)n1` [gemcitabine], the “course of patient's cancer” value in experiment [1] is recorded as “continued to progress”.

Values taken from US9173891B2, “Treatment of ovarian cancer using an anticancer agent conjugated to an angiopep-2 analog” (Angiochem, Inc., priority 2009, dated 2015).
